According to PubChem BioAssay (NCI):
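Briefly, cells in 96-well plates were exposed to five compound concentrations for 48 h, and endpoints were estimated by linear interpolation. TGI: concentration producing complete growth inhibition.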

Key:
Experiment in all cases: NCI anticancer screen, dose series, 48 h
786-0 renal = test system: 786-0 renal
A498 renal = test system: A498 renal
DLD-1 colon = test system: DLD-1 colon
DMS 114 small cell lung = test system: DMS 114 small cell lung
HCC-2998 colon = test system: HCC-2998 colon
HL-60(TB) leukemia = test system: HL-60(TB) leukemia
LXFL 529 NSCLC = test system: LXFL 529 NSCLC
M19-MEL melanoma = test system: M19-MEL melanoma
MALME-3M melanoma = test system: MALME-3M melanoma
OVCAR-5 ovarian = test system: OVCAR-5 ovarian
UO-31 renal = test system: UO-31 renal
KM20L2 colon = test system: KM20L2 colon
SNB-78 CNS = test system: SNB-78 CNS

Structure (SMILES) | TGI (786-0 renal) | TGI (A498 renal) | TGI (DLD-1 colon) | TGI (DMS 114 small cell lung) | TGI (HCC-2998 colon) | TGI (HL-60(TB) leukemia) | TGI (LXFL 529 NSCLC) | TGI (M19-MEL melanoma) | TGI (MALME-3M melanoma) | TGI (OVCAR-5 ovarian) | TGI (UO-31 renal) | TGI (KM20L2 colon) | TGI (SNB-78 CNS)
CCOC(=O)C12CC1(C(=O)OCC)C1CCC2C1 (centres undefined) | > 100 µM | > 100 µM | > 100 µM | > 100 µM | > 100 µM | > 100 µM | > 100 µM | > 100 µM | > 100 µM | > 100 µM | > 100 µM |  | 
Cc1ccc(NC(=O)C(=O)Cc2nc3ccccc3o2)c(C)c1 | > 100 µM |  | > 100 µM | > 100 µM | > 100 µM |  | > 100 µM | > 100 µM | > 100 µM | > 100 µM | > 100 µM | > 100 µM | > 100 µM
COc1ccc(C(=O)C=C2NCCN2)cc1 | > 100 µM | > 100 µM | > 100 µM | > 100 µM | > 100 µM | > 100 µM | > 100 µM | > 100 µM | > 100 µM | > 100 µM | > 100 µM | > 100 µM | > 100 µM
Cc1cc(C)nc(NS(=O)(=O)c2ccc(NC(=O)c3cccc4cc5ccccc5nc34)cc2)n1 | > 100 µM | 50.5 µM | 98.4 µM |  |  |  | > 100 µM | 79 µM | 56.7 µM | > 100 µM | > 100 µM | > 100 µM | 72.7 µM
O=C1C(c2ccccc2)=C(c2ccccc2)C(c2ccc(CCCCCCc3ccc(C4=C(c5ccccc5)C(=O)C(c5ccccc5)=C4c4ccccc4)cc3)cc2)=C1c1ccccc1 | > 100 µM |  | > 100 µM | > 100 µM | > 100 µM | > 100 µM | > 100 µM | > 100 µM | > 100 µM | > 100 µM | > 100 µM | > 100 µM | > 100 µM
COc1ccc(NC(=O)C(=O)C2NC(=S)NC2=O)c(OC)c1 (centres undefined) | > 100 µM | > 100 µM | > 100 µM | > 100 µM | > 100 µM | > 100 µM | > 100 µM | > 100 µM | > 100 µM |  | > 100 µM | > 100 µM | > 100 µM
Cc1ccc(Nc2ccc(Nc3ccc(C)cc3)c3c2C(=O)c2c(O)ccc(O)c2C3=O)cc1 | > 100 µM | > 100 µM | > 100 µM | > 100 µM | > 100 µM | > 100 µM | > 100 µM | > 100 µM | > 100 µM | > 100 µM | > 100 µM |  | > 100 µM
O=[N+]([O-])c1ccccc1C1N2CCCCC2[C@@H]2c3[nH]c4ccccc4c3CCN12 (some centres undefined) | 29.7 µM | 25.2 µM | 36.3 µM | 14.7 µM |  | 16.8 µM | 22.8 µM | 18.5 µM |  | 40 µM | 23.5 µM | 25.1 µM | 32.2 µM
Cc1nc(C(N)=S)sc1C(=O)/C=C/c1cccc(O)c1 | > 100 µM | > 100 µM | > 100 µM | > 100 µM | > 100 µM | > 100 µM |  | > 100 µM | > 100 µM | > 100 µM | > 100 µM | > 100 µM | > 100 µM
COC(=O)C1=C(C(=O)OC)C2(C(=O)OC)OC1(OC)C(C1(C(=O)OC)C(C(=O)OC)=C1C(=O)OC)=C2C(=O)OC (centres undefined) | > 100 µM |  | > 100 µM | > 100 µM | > 100 µM | > 100 µM | > 100 µM | > 100 µM | > 100 µM | > 100 µM | > 100 µM | > 100 µM | > 100 µM
Fc1ccccc1C1CC(C(c2ccccc2)c2ccccc2)=Nc2ccccc2S1 (centres undefined) | 16.2 µM | 20 µM | 23.6 µM | 23.6 µM | 17.6 µM | 16.6 µM | 15.3 µM |  | 29.5 µM | 33.6 µM | 28.8 µM | 27.6 µM | 
CCCCCCCCCC(=O)CC(=O)c1c(O)cccc1O | 35.3 µM |  | > 100 µM | 89.5 µM | > 100 µM | 45.3 µM | > 100 µM | > 100 µM | 74.4 µM | 64 µM | > 100 µM | > 100 µM | > 100 µM
CCN(CC)CCCNC(=O)Cc1ccccc1Nc1c(Cl)cccc1Cl | 21.8 µM |  | 28.3 µM | 27.6 µM | 11.5 µM | 27.5 µM | 21.3 µM | 17.4 µM |  | 23.5 µM | 23.8 µM | 12.4 µM | 32.8 µM
C/C(=N\Nc1ccc([N+](=O)[O-])cc1)C(=O)N(C)Nc1ccccc1 | > 100 µM | > 100 µM | > 100 µM | > 100 µM | > 100 µM | > 100 µM | > 100 µM | > 100 µM |  |  | > 100 µM | > 100 µM | 
CN(O)C(=O)Cc1ccccc1 | > 100 µM |  | > 100 µM | > 100 µM | > 100 µM | > 100 µM | > 100 µM | > 100 µM | > 100 µM | > 100 µM | > 100 µM | > 100 µM | > 100 µM
COC1=C(OC)CCC(/C(C#N)=C/c2ccc(OC)c(OC)c2)=C1 | > 100 µM | > 100 µM | > 100 µM | > 100 µM | > 100 µM |  | > 100 µM | > 100 µM |  | > 100 µM | > 100 µM | > 100 µM | > 100 µM
COc1cc2c(cc1C)n(O)c(C)c(C(=O)C/C(=N/NC(=O)C[N+](C)(C)C)C(=O)Nc1cccc(Cl)c1C)[n+]2=O | > 100 µM | > 100 µM | > 100 µM | > 100 µM | > 100 µM | > 100 µM | > 100 µM |  | > 100 µM | > 100 µM | > 100 µM | > 100 µM | > 100 µM
COc1ccc2c(c1)CC[C@@H]1C2CC[C@]2(C)C(=O)NC(=O)CC12 (some centres undefined) | > 100 µM | > 100 µM | > 100 µM |  | > 100 µM | > 100 µM | > 100 µM | > 100 µM | > 100 µM | > 100 µM | > 100 µM | > 100 µM | > 100 µM
Cc1cc(C)c(C(=O)OC(c2ccccc2)C(c2ccccc2)N2CCOCC2)c(C)c1 (centres undefined) | > 100 µM | > 100 µM | > 100 µM | > 100 µM | > 100 µM | > 100 µM | > 100 µM | > 100 µM | > 100 µM |  | > 100 µM | > 100 µM | > 100 µM
